Test results published in PMC6097184 (Clinical cancer research : an official journal of the …, 2017).

Key:
[1] = biological target: Wee1 tyrosine kinase; settings: ref https://ncats.nih.gov/files/AZD1775.pdf; cited from earlier work
[2] = physicochemical parameters from literature; settings: high permeability and low solubility
[3] = format: in vivo; settings: human, po, 400 mg, range, 20 patients with glioblastoma, single oral dose 100, 200 or 400 mg
[4] = tested on: DNA damage and G2-checkpoint escape; settings: ref https://ncats.nih.gov/files/AZD1775.pdf; cited from earlier work
[5] = fraction unbound in plasma; format: in vitro ADME; settings: human, patient plasma, fu,p, mean ± SD, plasma of 20 patients with glioblastoma
[6] = biological target: T1, human OATP2B1 (Homo sapiens, UniProt O94956); test: cellular uptake in HEK293 cells overexpressing OATP2B1; settings: 10 μmol/L fluvastatin A
T1 sequence (O94956 1-709): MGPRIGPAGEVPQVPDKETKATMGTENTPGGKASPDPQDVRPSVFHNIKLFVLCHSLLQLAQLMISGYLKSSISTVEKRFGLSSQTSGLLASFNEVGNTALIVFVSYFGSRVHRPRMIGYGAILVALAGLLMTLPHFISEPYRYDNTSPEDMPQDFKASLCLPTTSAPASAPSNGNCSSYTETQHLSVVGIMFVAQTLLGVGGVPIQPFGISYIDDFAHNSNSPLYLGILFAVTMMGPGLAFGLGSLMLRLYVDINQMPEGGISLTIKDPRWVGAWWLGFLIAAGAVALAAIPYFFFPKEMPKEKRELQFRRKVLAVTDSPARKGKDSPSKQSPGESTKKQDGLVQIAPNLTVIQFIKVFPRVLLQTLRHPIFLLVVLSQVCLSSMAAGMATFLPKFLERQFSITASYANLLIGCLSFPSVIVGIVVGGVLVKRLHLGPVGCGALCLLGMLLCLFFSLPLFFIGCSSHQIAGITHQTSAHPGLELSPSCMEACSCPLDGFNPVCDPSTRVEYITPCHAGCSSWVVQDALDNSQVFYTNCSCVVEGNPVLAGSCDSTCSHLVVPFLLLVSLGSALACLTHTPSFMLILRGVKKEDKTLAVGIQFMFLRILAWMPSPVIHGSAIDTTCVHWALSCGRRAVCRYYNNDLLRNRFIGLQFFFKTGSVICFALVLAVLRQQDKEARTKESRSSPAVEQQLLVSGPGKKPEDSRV

[7] = biological target: T2, human OAT3 (Homo sapiens, UniProt Q8TCC7); test: cellular uptake in HEK293 cells overexpressing OAT3
T2 sequence (Q8TCC7 1-542): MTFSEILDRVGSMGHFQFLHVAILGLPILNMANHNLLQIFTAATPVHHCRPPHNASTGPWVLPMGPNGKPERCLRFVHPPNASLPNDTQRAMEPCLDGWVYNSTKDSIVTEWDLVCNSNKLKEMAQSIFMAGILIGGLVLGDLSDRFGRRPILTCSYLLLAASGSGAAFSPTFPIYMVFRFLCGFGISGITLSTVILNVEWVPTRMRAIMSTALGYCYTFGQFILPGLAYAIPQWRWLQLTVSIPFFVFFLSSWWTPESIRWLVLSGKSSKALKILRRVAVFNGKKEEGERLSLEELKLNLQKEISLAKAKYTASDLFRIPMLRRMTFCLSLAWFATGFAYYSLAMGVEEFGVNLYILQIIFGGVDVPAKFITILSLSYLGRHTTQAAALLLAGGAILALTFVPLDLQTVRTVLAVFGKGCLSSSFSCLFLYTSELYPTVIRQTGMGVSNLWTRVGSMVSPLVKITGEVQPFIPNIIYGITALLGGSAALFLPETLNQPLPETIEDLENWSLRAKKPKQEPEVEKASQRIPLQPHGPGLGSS

Structure (SMILES)	enzyme IC50 for inhibiting Wee1 activity [1] [µg/mL]	Biopharmaceutics Classification System (BCS) class [2]	Kp ([3]; tumor / plasma (total), total tumor-to-plasma concentration ratio (Kp))	Kp uu ([3]; tumor / plasma (unbound), unbound tumor-to-plasma concentration ratio (Kp,uu))	IC50 for inducing DNA damage and G2-checkpoint escape in cell-based assays [4] [µg/mL]	fraction unbound [5]	cellular uptake in OATP2B1 cells in presence of inhibitor [6]	cellular uptake in OAT3 cells in presence of inhibitor ([7]; 50 μmol/L probenecid)	cellular uptake in HEK293 cells overexpressing OAT3 compared with vector control ([7]; no inhibitor)
C=CCn1c(=O)c2cnc(Nc3ccc(N4CCN(C)CC4)cc3)nc2n1-c1cccc(C(C)(C)O)n1 [AZD1775]	0.0026	class II	3.8 to 40.4	1.3 to 24.4	~0.04	0.182 ± 0.024			
C[C@]12CC[C@@H]3c4ccc(OS(=O)(=O)O)cc4CC[C@H]3[C@@H]1CCC2=O [estrone-3-sulfate]							reduced estrone-3-sulfate uptake to a level similar to that in the vector control	reduced estrone-3-sulfate uptake to a level similar to that in the vector control	significantly higher
